Read-outs that look alike come from different tables or passages of the source.
Legend:
[1] = test system: T. cruzi, strain Tulahuen C4 amastigotes; experiment: In vitro activity against T. cruzi amastigotes; format: cell-based; details: for Bnz/comp: fold potency against T. cruzi relative to Bnz; for antichagasic activity class (TDR criteria): T. cruzi amastigotes; for SI (IC50 in L6 cells/IC50 in T. cruzi): selectivity index vs L6 cells
Chagas disease = details: cited from earlier work; for cure rates, chronic stage: adults in the chronic stage
[2] = test system: T.b. rhodesiense, strain STIB 900 trypomastigotes; experiment: In vitro activity against T. b. rhodesiense; format: cell-based; details: for anti-HAT activity class (TDR criteria): BSF T. b. rhodesiense
T. cruzi CYP51 [3] = molecular target: T1, T. cruzi CYP51 (Trypanosoma cruzi, UniProt Q7Z1V1); experiment: Spectral titration binding to T. cruzi CYP51; details: TcCYP51 spectral response
T. cruzi CYP51 [4] = molecular target: T1, T. cruzi CYP51; experiment: Reconstituted CYP51 reaction inhibition; format: biochemical; details: compound 19: at high I/E ratios (≥ 20)
Caco-2 cells = experiment: Caco-2 monolayer permeability; format: in vitro ADME; details: 10 μM, 2 h
[5] = test system: transgenic T. cruzi parasites expressing firefly luciferase; experiment: In vivo antichagasic activity, acute T. cruzi infected murine model; details: i.p., 15 mg/kg/day (compound 5: 13 mg/kg/day)
[6] = test system: blood stream form T. b. brucei parasites overexpressing TbNTR; experiment: Susceptibility of blood stream form T. b. brucei with or without elevated TbNTR; format: cell-based
[7] = test system: T.b. rhodesiense, strain STIB 900 trypomastigotes; details: cited from earlier work
[8] = polar surface area, predicted; cited from earlier work
[9] = test system: L6 cells (rat skeletal myoblasts); details: read-out: Cytotox. L6 IC-50; host L6 cells; cited from earlier work
[10] = test system: T. cruzi, strain Tulahuen C4 amastigotes; details: cited from earlier work
[11] = test system: L6 cells (rat skeletal myoblasts); experiment: Cytotoxicity in host L6 cells; format: cell-based
[12] = Caco-2 monolayer permeability; format: in vitro ADME; details: human, Caco-2
[13] = read-out: T.b.rhod. IC-50, strain STIB 900 trypomastigotes
[14] = read-out: T.cruzi IC-50, strain Tulahuen C4 amastigotes

T1 sequence (Q7Z1V1 whole entry): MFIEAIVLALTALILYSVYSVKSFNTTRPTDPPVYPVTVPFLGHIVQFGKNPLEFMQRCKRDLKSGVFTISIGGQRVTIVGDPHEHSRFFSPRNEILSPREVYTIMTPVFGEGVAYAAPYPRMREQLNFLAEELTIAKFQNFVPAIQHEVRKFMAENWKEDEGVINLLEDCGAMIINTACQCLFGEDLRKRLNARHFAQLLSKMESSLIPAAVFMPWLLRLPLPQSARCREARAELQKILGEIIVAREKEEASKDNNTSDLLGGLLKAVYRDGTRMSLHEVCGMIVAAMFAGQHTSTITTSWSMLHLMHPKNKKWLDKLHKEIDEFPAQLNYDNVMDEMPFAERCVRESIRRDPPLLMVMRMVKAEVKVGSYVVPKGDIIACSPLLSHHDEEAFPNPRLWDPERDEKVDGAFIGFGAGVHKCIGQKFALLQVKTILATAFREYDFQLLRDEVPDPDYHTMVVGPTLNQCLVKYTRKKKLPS

CC(O)(Cn1cnc([N+](=O)[O-])n1)c1ccc(-c2ccccc2)cc1 (stereo not shown) [Compound 17, 1-(3-nitro-1H-1,2,4-triazol-1-yl)-2-(4-phenylphenyl)propan-2-ol]
Bnz/comp [1]: 21.94

O=C(Cn1ccnc1[N+](=O)[O-])NCc1ccccc1 [Bnz, N-benzyl-2-(2-nitro-1H-imidazol-1-yl)acetamide]
cure rates, acute phase (Chagas disease; acute phase of Chagas disease): 65-80% | cure rates, chronic stage (Chagas disease): 15-30%

CC[C@@H]([C@H](C)O)n1ncn(-c2ccc(N3CCN(c4ccc(OC[C@@H]5CO[C@@](Cn6cncn6)(c6ccc(F)cc6F)C5)cc4)CC3)cc2)c1=O [posaconazole]
treatment failure (Chagas disease; clinical trials, human patients with chronic Chagas disease): ~80%

CC(O)(Cn1cncn1)c1ccc(-c2ccccc2)cc1 (stereo not shown) [Compound 16, 2-(4-phenylphenyl)-1-(1H-1,2,4-triazol-1-yl)propan-2-ol]
fold less potent against T. cruzi than 17 [1]: 7 fold | antichagasic activity class (TDR criteria) [1]: active | Bnz/comp [1]: 3.17 | anti-HAT activity class (TDR criteria) [2]: inactive

O=C(Cn1cnc([N+](=O)[O-])n1)Nc1nnc(-c2ccc(Cl)cc2)s1 [Compound 4, N-[5-(4-chlorophenyl)-1,3,4-thiadiazol-2-yl]-2-(3-nitro-1H-1,2,4-triazol-1-yl) acetamide]
Bnz/comp [1]: 0.04 | anti-HAT activity class (TDR criteria) [2]: did not show any anti-HAT activity

Cc1ccc(S(=O)(=O)NC(Cc2ccccc2)Cn2cnc([N+](=O)[O-])n2)cc1 (stereo not shown) [Compound 21, 4-Methyl-N-[1-(3-nitro-1H-1,2,4-triazol-1-yl)-3-phenylpropan-2-yl]benzene-1-sulfonamide]
fold less potent against T. cruzi than 17 [1]: about 3 fold | antichagasic activity class (TDR criteria) [1]: active | Bnz/comp [1]: 1.7

O=C(Cn1ccnc1[N+](=O)[O-])Nc1nc(-c2ccc(F)c(F)c2)cs1 [Compound 7, N-(4-(3,4-difluorophenyl)thiazol-2-yl)-2-(2-nitro-1H-imidazol-1-yl)acetamide]
fold less active against T. cruzi compared to 6 [1]: about 8.7 fold | antichagasic activity class (TDR criteria) [1]: borderline active | Bnz/comp [1]: 0.51 | anti-HAT activity class (TDR criteria) [2]: inactive

O=[N+]([O-])c1ncn(CC(O)(Cn2cncn2)c2ccc(-c3ccccc3)cc2)n1 (stereo not shown) [Compound 19, 1-(3-nitro-1H-1,2,4-triazol-1-yl)-2-(4-phenylphenyl)-3-(1H-1,2,4-triazol-1-yl)propan-2-ol]
apparent Kd, fold stronger than fluconazole (T. cruzi CYP51 [3]): 10 fold | reversibility of TcCYP51 inhibition (T. cruzi CYP51 [4]): irreversible | Caco 2 permeability ranking (Caco-2 cells): high

CC1CS(=O)(=O)CCN1/N=C/c1ccc([N+](=O)[O-])o1 (stereo not shown) [Nfx, 4-(5-nitrofurfurylindenamino)-3-methylthio-morpholine-1,1-dioxide]
cure rates, chronic stage (Chagas disease): 15-30%

Cc1nc(-c2cccc(NC(=O)Cn3cnc([N+](=O)[O-])n3)c2)cs1 [Compound 8, N-(3-(2-methylthiazol-4-yl)phenyl)-2-(3-nitro-1H-1,2,4-triazol-1-yl)acetamide]
antichagasic activity class (TDR criteria) [1]: active | Bnz/comp [1]: 3.67

N#Cc1ccc(-c2ccc(NC(=O)Cn3cnc([N+](=O)[O-])n3)cc2)cc1 [Compound 2, N-[4-(4-cyanophenyl)phenyl]-2-(3-nitro-1H-1,2,4-triazol-1-yl)acetamide]
parasite levels after 5 days of treatment [5]: undetectable levels | Bnz/comp [1]: 10.77 | anti-HAT activity class (TDR criteria) [2]: active | reversibility of TcCYP51 inhibition (T. cruzi CYP51 [4]): reversible | fold more susceptible, TbNTR-overexpressing vs non-induced parasites [6]: 2 to 3 fold | Caco 2 permeability ranking (Caco-2 cells): high

CC(O)(Cn1cncn1)c1ccc(-n2ccnc2)cc1 (stereo not shown) [Compound 15, 2-[4-(1H-imidazol-1-yl)phenyl]-1-(1H-1,2,4-triazol-1-yl)propan-2-ol]
anti-HAT activity class (TDR criteria) [2]: inactive

Nc1nc(N)nc(Nc2ccc([As]3SCC(CO)S3)cc2)n1 (stereo not shown) [Melars., Melarsoprol, reference compound]
IC50 ([2]; Trypanosoma brucei, RHODESIENSE|STIB900, read-out: T.b.rhod. IC-50): 7 ± 1 nM

O=C(Cn1cnc([N+](=O)[O-])n1)Nc1ccc(N2CCCCC2)cc1 [Compound 9, 2-(3-nitro-1H-1,2,4-triazol-1-yl)-N-(4-(piperidin-1-yl)phenyl)acetamide]
antichagasic activity class (TDR criteria) [1]: active | Bnz/comp [1]: 3.66 | anti-HAT activity class (TDR criteria) [2]: inactive

O=[N+]([O-])c1ncn(CC(O)(Cn2cncn2)c2ccc(F)cc2F)n1 (stereo not shown) [Compound 18, 2-(2,4-difluorophenyl)-1-(3-nitro-1H-1,2,4-triazol-1-yl)-3-(1H-1,2,4-triazol-1-yl)-propan-2-ol]
fold less potent against T. cruzi than 19 [1]: 36 fold | fold more potent against T. cruzi than fluconazole [1]: 8.5 fold | Bnz/comp [1]: 1.81

O=[N+]([O-])c1ncn(CCCNS(=O)(=O)c2ccc(Cl)s2)n1 [Compound 23]
IC50 [7, 13]: 1990 nM | SI (IC50 in L6 cells/IC50 in T.b. rhodesiense) ([7]; selectivity index vs L6 cells): 122 | PSA [8]: 122.7 Å^2 | IC50 [9]: 244000 nM | Bnz/comp ([10]; fold potency against T. cruzi relative to Bnz): 3.6 | IC50 [10, 14]: 438 nM | SI (IC50 in L6 cells/IC50 in T. cruzi) ([10]; selectivity index vs L6 cells): 556

CC(O)(Cn1cnc([N+](=O)[O-])n1)c1ccc(-n2ccnc2)cc1 (stereo not shown) [Compound 14, 2-[4-(1H-imidazol-1-yl)phenyl]-1-(3-nitro-1H-1,2,4-triazol-1-yl)propan-2-ol]
fold less potent against T. cruzi than 17 [1]: 32 fold | antichagasic activity class (TDR criteria) [1]: active | Bnz/comp [1]: 0.68

O=C(Cn1cnc([N+](=O)[O-])n1)c1ccc(F)cc1F [Compound 10, 1-(2,4-difluorophenyl)-2-(3-nitro-1H-1,2,4-triazol-1-yl)ethan-1-one]
antichagasic activity class (TDR criteria) [1]: active | Bnz/comp [1]: 1.29

O=C(Cn1cnc([N+](=O)[O-])n1)Nc1nc(-c2ccc(Cl)cc2)cs1 [Compound 3, N-[4-(4-chlorophenyl)-1,3-thiazol-2-yl]-2-(3-nitro-1H-1,2,4-triazol-1-yl)acetamide]
antichagasic activity class (TDR criteria) [1]: active | Bnz/comp [1]: 7.24

Fc1ccc(C2(Cn3cncn3)Cn3ccnc3O2)c(F)c1 (stereo not shown) [Compound 20, 1-{[2-(2,4-difluorophenyl)-2H,3H-imidazo[2,1-b][1,3]oxazol-2-yl]methyl}-1H-1,2,4-triazole]
fold less potent against T. cruzi than 18 [1]: about 5 fold | Bnz/comp [1]: 0.35 | SI (IC50 in L6 cells/IC50 in T. cruzi) [1]: >49.4

O=C(Cn1cnc([N+](=O)[O-])n1)Nc1ccc(-c2ccc(Cl)cc2)cc1 [Compound 5, N-(4′-chloro-[1,1′-biphenyl]-4-yl)-2-(3-nitro-1H-1,2,4-triazol-1-yl)acetamide]
parasite levels after 5 days of treatment [5]: undetectable levels | factor of increased efficacy against T. cruzi compared to analog 2 [1]: 3 fold

1-(4-phenylphenyl)-2-(1H-1,2,4-triazol-1-yl)ethan-1-one [Compound 11]
IC50 [11]: 220000 nM | antichagasic activity class (TDR criteria) [1]: active | Bnz/comp [1]: 11.9 | IC50 [1, 14]: 188 nM | SI (IC50 in L6 cells/IC50 in T. cruzi) [1]: 1164 | IC50 [2, 13]: 1750 nM | SI (IC50 in L6 cells/IC50 in T.b. rhodesiense) ([2]; selectivity index vs L6 cells): 125

O=C(Cn1cnc([N+](=O)[O-])n1)Nc1nc(-c2ccc(F)c(F)c2)cs1 [Compound 6, N-(4-(3,4-difluorophenyl)thiazol-2-yl)-2-(3-nitro-1H-1,2,4-triazol-1-yl)acetamide]
antichagasic activity class (TDR criteria) [1]: active | Bnz/comp [1]: 4.42 | anti-HAT activity class (TDR criteria) [2]: inactive

CNC(=C[N+](=O)[O-])NCCSCc1ccc(CN(C)C)o1 [Ranitidine, reference compound]
Papp A→B at 2 h, 10 µM [12]: 0.24 ×10⁻⁶ cm/s

— publication PMC4337820 (Journal of medicinal chemistry, 2015)
